The test system of assay [1] is male OF-1 “intruder” mice. Briefly: Intruder test (social withdrawal of intruder mice). In kind it is in vivo, mouse. As to the method:
Rufinamide, a Na-channel blocker and anti-epileptic agent, and carbamazepine, an anticonvulsant employed to treat bipolar disorder, were given to male OF-1 “intruder” in oral-doses of 1/3/10 mg/kg, 1 hr before the animals were confronted with an individually-housed, aggressive, male OF-1 resident mouse. […] This increase in social investigation (sociotropic effect) was accompanied by a decrease in the frequency and duration of defensive ambivalence probably through competitive inhibition. No signs of motor stimulation were detected.
The Intruder test duplicates a territorial encounter between a territory holder (aggressive male) and a subordinate “intruder” mouse. […] In this test the intruders receive the treatment whereas the residents remain untreated. (Dixon, A. K., Huber, C., Lowe, D. J. Clin. Psychiatry. 55 (9) Suppl B, 4-7 (1994)). For purposes of this study, rufinamide and carbamazepine were given orally to intruder mice 1 hr before being introduced singly to aggressive residents using doses of ⅓ and 10 mg/kg.
Over 60 ethological elements describing the social and non-social behaviour of mice based on the ethogram originally proposed by Grant and Mackintosh (Grant, E. C. Mackintosh, J. H. Behaviour 21: 246-259 (1963) ) and classified according to 9 behavioural categories (Dixon, A. K., Huber, C., Fisch, H. U. Adv. Study. Behaviour. 19: 171-204 (1990)) form the rodent ethogram as used in this test (FIG. 3).

In assay [2] the test system is Male Rj: Wistar (Han) rats. Description: Vogel Conflict Test in the rat. In kind it is in vivo. The settings on record: for number of shocks received (punished drinking), change vs vehicle control: 60 minutes before the test. As to the method:
Rufinamide was dispersed in 0.5% methylcellulose (MC) in distilled water. Vehicle was dispersed in 0.5% MC in distilled water. Clobazam was dispersed in 0.5% MC in distilled water. Methylcellulose (Sigma), batch n° 62K0144, white powder. Distilled water (Laboratoire Aguettant, sterile water for injectable preparation). All substances were stored in a dry, dark, controlled access area and maintained at a controlled ambient temperature (+18° C.). The vehicle suspensions were stored at +4° C.
The vehicle, test substance and reference substance were administered in a volume of 5 ml/kg body weight.
Male Rj: Wistar (Han) rats, 171-205 g body weight range were used. They were supplied by Elevage Janvier, 53940 Le Genest-Saint-Isle, France.
Animals were delivered to the laboratory at least 5 days before the experiment, during which time they were acclimatized to the laboratory conditions. They were housed in groups of 5 in macrolon cages (41×25×14 cm) on wood litter (Litalabo—SPPS, 95100 Argenteuil, France) with free access to food (Code 113-SAFE, 91360 Epinay-sur-Orge, France) and water until
Results in grouped data tables are presented as means followed by a ± sign and the standard error of the mean (s.e.m.) on the basis of 15 animals per group and as percent change from control. The statistical tests used are indicated with the method. All statistical calculations were performed using commercial software (Microsoft Excel®, GB Stat version 6.5), and verified test by test according to Porsolt & Partners Pharmacology's standardized internal procedures. All differences were considered statistically significant when the null hypothesis could be rejected at the risk α=0.05 or less.
Rats were deprived of water for 48 hours and were then placed individually into a transparent Plexiglas enclosure (15×32×34 cm) with a floor consisting of stainless steel bars (0.4 cm) spaced 1 cm apart. The back wall of the enclosure was made of opaque Plexiglass thereby concealing the observer from the experimental animal. In the centre of the opposite wall, 5 cm above the floor, a metal water spout protruded into the cage and was connected to one pole of a shock generator (Apelex: Type 011346). The other pole of the shock generator was connected to the metal grid floor.
The rat was left to explore until it found the water spout. Then, every time it drank, it received a slight electric shock (1.7 mA, 1 sec.) 2 seconds after it started lapping. The number of shocks received (punished drinkings) was counted during a 3 minute period.
15 rats were studied per group. The test was performed blind.
rufinamide was evaluated at 25, 50, 100 and 200 mg/kg, administered p.o. 60 minutes before the test, and compared with a vehicle control group.
Clobazam (64 mg/kg), administered under the same experimental conditions, was used as reference substance.
Data were analyzed by comparing treated groups with vehicle control using unpaired Student's t tests.

The mark [3] stands for this setting: 1/3/10 mg/kg oral, 1 hr before encounter.

Regarding `NC(=O)c1cn(Cc2c(F)cccc2F)nn1` [rufinamide, 1-(2,6-difluorobenzyl)-1H-1,2,3-triazole-4-carboxamide], the “non-social (NS) behaviour, frequency” value in assay [1] (1/3/10 mg/kg oral, 1 hr before 6 minute encounter) is “significant, dose-related increase”. Further, in assay [1] (1/3/10 mg/kg oral, 1 hr before 6 minute encounter, frequency and duration), the “social investigation (SI)” value was “increased, albeit in a bell-shaped manner with only changes at 3 mg/kg attaining significance”. In assay [1] (setting [3]), the “duration of defensive ambivalence (DA), arrested flight (AF) and escape” value is on record as “significantly reduced but not uniformly”. Further, in assay [1] (setting [3]), the “frequencies of arrested flight and escape” value is “only reduced significantly at 1 mg/kg”. Further, in assay [1] (setting [3]), the “time spent in non-social activities” value is listed as “only weakly following suit”. The “total number of ethological elements performed in the 6 minute encounter” value in assay [1] (setting [3]) was “increased in a dose-related manner”. In addition, the “time spent in static flight (SF) postures” value in assay [1] (at 3 and 10 mg/kg oral, 1 hr before encounter) was “significant shortening”. Moreover, in assay [1] (oral), the “dose which is sociotropic in the intruder test” value is 3 mg/kg. Besides, the “number of shocks received (punished drinking), change vs vehicle control” value in assay [2] (25 mg/kg p.o., 3 minute period, 15 rats) was “+31%”; in assay [2] (50 mg/kg p.o., p<0.05), “+40%”; in assay [2] (100 mg/kg p.o.) it was “+55%”; in assay [2] (200 mg/kg p.o.) it was “+83%”. Besides, the “dose-range of anxiolytic-like activity” value in assay [2] (p.o.) was in the range of 25 to 200 mg/kg. In addition, in assay [2] (p.o., p<0.05), the “dose from which the increase in shocks received is significant” value is given as at least 50 mg/kg.

(Values after patent US20090054414A1, “Rufinamide for the Treatment of Post-Traumatic Stress Disorder” (SYNOSIA THERAPEUTICS, priority 2007, published 2009).)
